Source: patent publication US20250213547A1, “METHODS OF TREATING NEUROLOGICAL DISEASES” (priority 2022, published 2025)
Several values for one entry are separate records, joined by “and”; a condition that tells them apart may be missing. Identical values can stand only once. Like-named read-outs stand apart in the source and are kept apart here.

Assays:
clinical = settings: human, in vivo, 300 mg
From the text: This study included nine patients in a three-sequence regimen altering fed state and formulation.
Aside from differences in a few selected time points, PK data collection procedures and analyses are similar to example 2.

[1] = Healthy Japanese subjects, Part 2 (100, 200, 300 mg BID up-titration): PK of TAK-935 and M-I; format: in vivo, human; settings: for AUlast/D (dose-normalized): mean (% CV); for Cmax: read-out: Cmax; for Vd/F: read-out: Vz/F
Procedure: This study consisted of 2 parts, and was a randomized, double-blind, placebo-controlled study to assess safety, tolerability, and PK and PD of TAK-935 when administered orally in healthy Japanese subjects.
TAK-935 or placebo was administered to the 9 subjects at the dose of 100 mg BID from Day 1 to Day 7, then 200 mg BID from Day 8 to Day 14, and finally 300 mg BID from Day 15 to Day 21, and safety, PK and PD were investigated. The planned dose levels of TAK-935 to be evaluated are outlined in Table 40a.
After the screening visit, eligible participants checked—in on Day-2. On Day 1, eligible participants were randomized 6:3 to TAK-935 or placebo in double-blinded fashion. No stratification variables were used for randomization. Study drug was administered every day by oral administration of multiple dosing with up-titration of TAK-935 to 9 subjects firstly at 100 mg BID from Day 1 to Day 7, then at 200 mg BID from Day 8 to Day 14, and finally at 300 mg BID from Day 15 to Day 21, successively. The subjects were discharged on Day 24. Intensive PK samplings were performed on Day 1, Day 7, Day 14 and Day 21.
Subjects received multiple oral doses of TAK-935 or placebo escalating from 100 mg BID, 200 mg BID, and then to 300 mg BID with 150 mL of water for 7 days per each dose level. For the morning dose, subjects were kept fasted for at least 8 hours before administration and up to 2 hours after administration. The evening dose was administered at any time between 8 hours and 12 hours after the morning dose, but prior to the evening meal except for Days 1, 7, 14, and 21. On Days 1, 7, 14, and 21, the evening dose was administered 12 hours after the morning dose and prior to the evening meal. • Identity of Study Drugs • Study drug refers to TAK-935 100 mg tablet and matching placebo. • Compound: Code name: TAK-935 • Dosage forms: TAK-935 100 mg tablets and matching placebo tablets were used in this study. The TAK-935 tablets and placebo tablets were yellow-red film-coated tablets for oral administration.
Blood samples for PK analysis of TAK-935 and its metabolites (M-I) were collected into blood collection tubes (vacutainer) containing the anticoagulant K2EDTA (Table 40e and Table 40f).
The PK parameters of TAK-935 and its metabolites (M-I) were determined from the concentration-time profiles for all evaluable subjects. Actual sampling times, rather than scheduled sampling times, were used in all computations involving sampling times. The following PK parameters were calculated from plasma concentrations of TAK-935 and its metabolites (M-I), unless otherwise specified: […]

[2] = Day 1 (100 mg BID), Part 2, Median
[3] = Day 1, TAK-935 100 mg BID, plasma, mean
[4] = Day 7 (100 mg BID), Part 2, Median
[5] = Day 7, TAK-935 100 mg BID, plasma, mean
[6] = Day 14 (200 mg BID), Part 2, Median
[7] = Day 14, TAK-935 200 mg BID, plasma, mean
[8] = Day 21 (300 mg BID), Part 2, Median
[9] = Day 21, TAK-935 300 mg BID, plasma, mean
[10] = human, plasma, oral, 100 mg, Day 1 (100 mg BID), Part 2, Median
[11] = human, plasma, oral, 100 mg, Day 1, TAK-935 100 mg BID, plasma, mean

O=C(c1cccnc1-c1ccncc1)N1CCC(O)(Cc2ccccc2)CC1 [soticlestat]
AUC∞ lower, tablet fed than fasting (clinical): 10.6% | Tmax (clinical): 31.8 min | mean Cmax decrease, tablet fed compared to fasted (clinical): 59.7% | AUC∞ lower with tablet compared with oral solution (clinical; po): 15.8% | Cmax lower with tablet compared with oral solution (clinical; po): 36.9% | Tmax (clinical; po): 21 min | CL/F [1, 2]: 501.5 L/H | Lambda z [1, 2]: 0.2135 h⁻¹ | T1/2z [1, 2]: 3.275 h | CL/F [1, 3]: 451.8 L/h | Lambda z [1, 3]: 0.2042 h⁻¹ | CL/F [1, 4]: 443.0 L/H | Lambda z [1, 4]: 0.2180 h⁻¹ | T1/2z [1, 4]: 3.270 h | CL/F [1, 5]: 551.8 L/h | Lambda z [1, 5]: 0.2325 h⁻¹ | AUlast/D (dose-normalized) ([1]; Day 7, TAK-935 100 mg BID, plasma): 2.238 (49.3) h*ng/mL/mg | CL/F [1, 6]: 254.0 L/H | Lambda z [1, 6]: 0.2685 h⁻¹ | T1/2z [1, 6]: 2.575 h | CL/F [1, 7]: 276.7 L/h and 276.4 L/h | Lambda z [1, 7]: 0.2775 h⁻¹ | AUlast/D (dose-normalized) ([1]; Day 14, TAK-935 200 mg BID, plasma): 4.298 (44.9) h*ng/mL/mg | CL/F [1, 8]: 147.0 L/H | Lambda z [1, 8]: 0.3095 h⁻¹ | T1/2z [1, 8]: 2.240 h | CL/F [1, 9]: 158.0 L/h | Lambda z [1, 9]: 0.2708 h⁻¹ | AUlast/D (dose-normalized) ([1]; Day 21, TAK-935 300 mg BID, plasma): 6.725 (25.2) h*ng/mL/mg | Mean t1/2z ([1]; TAK-935, Day 1, 100 mg BID): 5.988 h | Mean t1/2z ([1]; TAK-935, Day 7, 100 mg BID): 3.630 h | Mean t1/2z ([1]; TAK-935, Day 14, 200 mg BID): 2.620 h | Mean t1/2z ([1]; TAK-935, Day 21, 300 mg BID): 2.927 h | accumulation of Cmax and AUC ([1]; TAK-935, multiple dose administration): < 6% | AUC ([1]; human, plasma, oral, 100 mg, Day 1 (100 mg BID), Part 2, Geo Mean, read-out: AUC1ast): 209 ng·h/mL | AUC ([1]; human, plasma, oral, 100 mg, Day 1 (100 mg BID), Part 2, Geo Mean, read-out: AUCtau): 209 ng·h/mL | Cmax ([1]; human, plasma, oral, 100 mg, Day 1 (100 mg BID), Part 2, Geo Mean): 201 ng/mL | Tmax ([1]; human, plasma, oral, 100 mg, Day 1 (100 mg BID), Part 2, Mean, read-out: Tmax): 52.5 min | AUC ([1]; human, plasma, oral, 100 mg, Day 1 (100 mg BID), Part 2, Median, read-out: AUC1ast): 160 ng·h/mL | AUC ([1]; human, plasma, oral, 100 mg, Day 1 (100 mg BID), Part 2, Median, read-out: AUCtau): 160 ng·h/mL | Cmax [1, 10]: 146 ng/mL | Vd/F [1, 10]: 2450 L | AUC(0-t) [1, 11]: 232 ng·h/mL | AUC ([1]; human, plasma, oral, 100 mg, Day 1, TAK-935 100 mg BID, plasma, mean, read-out: AUCτ (AUC during a dosing interval)): 232 ng·h/mL | Cmax [1, 11]: 255 ng/mL | Vd/F [1, 11]: 4100 L | half-life ([1]; human, plasma, oral, 100 mg, Day 1, TAK-935 100 mg BID, plasma, mean, read-out: t1/2z (terminal disposition phase half-life) (converted)): 359 min | Tmax ([1]; human, plasma, oral, 100 mg, Day 1, TAK-935 100 mg BID, plasma, median, read-out: tmax): 45 min | AUC ([1]; human, plasma, oral, 100 mg, Day 7 (100 mg BID), Part 2, Geo Mean, read-out: AUC1ast): 201 ng·h/mL | AUC ([1]; human, plasma, oral, 100 mg, Day 7 (100 mg BID), Part 2, Geo Mean, read-out: AUCtau): 202 ng·h/mL
